Patent publication US8436035B2, “Organic compounds” (Novartis AG, priority 2006, dated 2013)

How the values were obtained:
[1] = molecular target: T1, aldosterone synthase (CYP11B2) (Homo sapiens, UniProt P19099); assay: in vitro aldosterone synthase inhibition, aldosterone production in Ang II-stimulated NCI-H295R cells; type: cell-based; conditions: read-out: AS IC50
T1 construct: host or cells: NCI-H295R
T1 sequence (P19099 25-503): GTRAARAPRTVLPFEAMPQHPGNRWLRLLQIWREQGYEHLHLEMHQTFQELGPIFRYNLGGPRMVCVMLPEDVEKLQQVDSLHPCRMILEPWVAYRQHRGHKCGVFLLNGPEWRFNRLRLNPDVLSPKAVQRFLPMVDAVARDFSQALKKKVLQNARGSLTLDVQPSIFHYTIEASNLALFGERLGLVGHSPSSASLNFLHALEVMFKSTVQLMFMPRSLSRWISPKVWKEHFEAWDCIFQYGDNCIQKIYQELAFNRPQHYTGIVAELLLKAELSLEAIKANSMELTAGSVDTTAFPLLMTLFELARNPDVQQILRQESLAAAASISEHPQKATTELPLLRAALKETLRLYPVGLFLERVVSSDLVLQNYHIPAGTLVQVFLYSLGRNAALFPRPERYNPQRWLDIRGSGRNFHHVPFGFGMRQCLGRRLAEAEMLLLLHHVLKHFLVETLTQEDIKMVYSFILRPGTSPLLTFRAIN
From the text: In particular, the aldosterone synthase inhibitory activities in vitro can be determined by the following assay.
Human adrenocortical carcinoma NCI-H295R cell line is obtained from American Type Culture Collection (Manassas, Va.). Insulin/transferrin/selenium (ITS)-A supplement (100×), DMEM/F-12, antibiotic/antimycotic (100×), and fetal calf serum (FCS) are purchased from Gibco (Grand Island, N.Y.). Anti-mouse PVT scintillation proximity assay (SPA) beads and NBS 96-well plates are obtained from Amersham (Piscataway, N.J.) and Corning (Acton, Mass.), respectively. Solid black 96-well flat bottom plates were purchased from Costar (Corning, N.Y.). Aldosterone and angiotensin (Ang II) are purchased from Sigma (St. Louis, Mo.). D-[1,2,6,7-^3H(N)]aldosterone was acquired from PerkinElmer (Boston, Mass.). Nu-serum was a product of BD Biosciences (Franklin Lakes, N.J.).
For in vitro measurement of aldosterone activity, human adrenocortical carcinoma NCI-H295R cells are seeded in NBS 96-well plates at a density of 25,000 cells/well in 100 μl of a growth medium containing DMEM/F12 supplemented with 10% FCS, 2.5% Nu-serum, 1 μg ITS/ml, and 1× antibiotic/antimycotic. The medium is changed after culturing for 3 days at 37° C. under an atmosphere of 5% CO2/95% air. On the following day, cells are rinsed with 100 μl of DMEM/F12 and incubated with 100 μl of treatment medium containing 1 μM Ang II and a compound at different concentrations in quadruplicate wells at 37° C. for 24 hr. At the end of incubation, 50 μl of medium is withdrawn from each well for measurement of aldosterone production by an RIA using mouse anti-aldosterone monoclonal antibodies.
Measurement of aldosterone activity can also be performed using a 96-well plate format. Each test sample is incubated with 0.02 μCi of D-[1,2,6,7-^3H(N)]aldosterone and 0.3 μg of anti-aldosterone antibody in phosphate-buffered saline (PBS) containing 0.1% Triton X-100, 0.1% bovine serum albumin, and 12% glycerol in a total volume of 200 μl at room temperature for 1 hr. Anti-mouse PVT SPA beads (50 μl) are then added to each well and incubated overnight at room temperature prior to counting in a Microbeta plate counter. The amount of aldosterone in each sample is calculated by comparing with a standard curve generated using known quantities of the hormone.

CYP11B1 = molecular target: T2, CYP11B1 (Homo sapiens, UniProt P15538); assay: in vitro CYP11B1 inhibition, steroid release from NCI-H295R cells; type: cell-based; conditions: for inhibition at 0.1 µM: NCI-H295R, read-out: 11B1 % I @ 100 nM
T2 construct: Thus, the NCI-H295R cells have Cyp11 B1 (steroid 11 p-hydroxylase); host or cells: NCI-H295R
T2 sequence (P15538 25-503): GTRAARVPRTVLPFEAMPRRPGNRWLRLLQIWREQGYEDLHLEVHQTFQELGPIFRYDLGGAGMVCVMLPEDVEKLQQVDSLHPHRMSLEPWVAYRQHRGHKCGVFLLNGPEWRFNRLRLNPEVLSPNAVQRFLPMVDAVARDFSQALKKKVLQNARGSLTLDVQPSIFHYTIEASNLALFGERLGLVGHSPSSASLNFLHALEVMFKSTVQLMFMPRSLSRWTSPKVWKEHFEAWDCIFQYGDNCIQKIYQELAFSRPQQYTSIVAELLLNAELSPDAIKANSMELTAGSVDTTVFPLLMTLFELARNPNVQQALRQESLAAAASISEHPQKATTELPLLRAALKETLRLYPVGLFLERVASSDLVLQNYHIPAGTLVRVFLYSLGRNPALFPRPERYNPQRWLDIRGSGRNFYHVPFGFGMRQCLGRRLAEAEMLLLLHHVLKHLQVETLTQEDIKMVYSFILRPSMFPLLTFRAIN
From the text: The in vitro inhibitory activities for CYP11B1 can be determined by the following assay.
The cell line NCI-H295R was originally isolated from an adrenocortical carcinoma and has been characterized in the literature through the stimulable secretion of steroid hormones and the presence of the enzymes essential for steroidogenesis. Thus, the NCI-H295R cells have Cyp11 B1 (steroid 11 p-hydroxylase). The cells show the physiological property of zonally undifferentiated human foetal adrenocortical cells which, however, have the capacity to produce the steroid hormones which are formed in the three, phenotypically distinguishable zones in the adult adrenal cortex.
The NCI-H295R cells (American Type Culture Collection, ATCC, Rockville, Md., USA) are grown in Dulbeoco's Modified Eagle'Ham F-12 Medium (DME/F12), which has been I supplemented with Ulroser SF Serum (Soprachem, Cergy-Saint-Christophe, France), insulin, transferrin, selenite (I-T-S, Becton Dickinson Biosciences, Franklin lakes, NJ, USA) and antibiotics in 75 cm^2 cell culture vessels at 37° C. and in a 95% air-5% carbon dioxide atmosphere. The cells are subsequently transferred for colony formation into a 24-well incubation vessel. They are cultivated there in DME/F12 medium, which is now supplemented with 0.1% bovine serum instead of Ultroser SF for 24 hours. The experiment is initiated by cultivating the cells in DME/F12 medium which is supplemented with 0.1% bovine serum albumin and test compound, in the presence or absence of cell stimulants, for 72 hours. The test substance is added in a concentration range from 0.2 nanomolar to […]. Cell stimulants which can be used are angiotensin 11 ([…] or 100 nanomolar), potassium ions (16 millimolar), forskolin (10 micromolar) or a combination of two stimulants.
The excretion of aldosterone, cortisol, corticosterone and estradiol/estrone into the culture medium can be detected and quantified by commercially available, specific monoclonal antibodies in radioimmunoassays in accordance with the manufacturer's instructions.
Inhibition of the release of certain steroids can be used as a measure of the respective enzyme inhibition by the added test compounds. The dose-dependent inhibition of enzymic activity by a compound is calculated by means of an inhibition plot which is characterized by an IC50.
The IC50 values for active test compounds are ascertained by a […] in order to construct inhibition plots without data weighting. The inhibition plot is calculated by fting a 4-parameter logistic function to the raw data points using the least squares method. The equation of the 4-parameter logistic function is calculated as follows: Y=(d−a)/((1+(x/c)b))+a I where: a=minimum data level b=gradient I c=ICED, d=maximum data level x=inhibitor concentration.

| Compound | IC50 [1] | inhibition at 0.1 µM (CYP11B1) | 11B1 % I @ 100 nM (CYP11B1; 100 nM) |
| --- | --- | --- | --- |
| CCc1cncn1C1CC(C)(C)c2ccccc21 (stereo not shown) [Compound 22, 1-(3,3-Dimethyl-indan-1-yl)-5-ethyl-1H-imidazole] | 194 nM | 100% | – |
| CC(C)OC(=O)c1cncn1C1CCCCc2ccccc21 (stereo not shown) [Compound 26, 3-(6,7,8,9-Tetrahydro-5H-benzocyclohepten-5-yl)-3H-imidazole-4-carboxylic acid isopropyl ester] | 5 nM | 99% | – |
| spiro[cyclopentane-1,2′-[3′-(7′-methyl-chroman-4′-yl)-3′H-imidazole-4′-carboxylic acid methyl ester]] [Compound 17] | 175 nM | – | 100% |

The next lines start with results.

| IC50 [1] | inhibition at 0.1 µM (CYP11B1) | Compound | 11B1 % I @ 100 nM (CYP11B1; 100 nM) |
| --- | --- | --- | --- |
| 194 nM | 93% | CC1(C)C(n2cncc2CO)c2ccccc2S1(=O)=O (stereo not shown) [Compound 24, [3-(2,2-Dimethyl-1,1-dioxo-2,3-dihydro-1H-1lambda*6*-benzo[b]thiophen-3-yl)-3H-imidazol-4-yl]-methanol] | – |
| 46 nM | 96% | COC(=O)c1cncn1C1c2ccccc2OC1(C)C (stereo not shown) [Compound 25, 3-(2,2-Dimethyl-2,3-dihydro-benzofuran-3-yl)-3H-imidazole-4-carboxylic acid methyl ester] | – |
